Measured values from publication PMC2744931, “Glutamate Uptake Triggers Transporter-Mediated GABA Release from Astrocytes” (PLoS ONE, 2009).
Read-outs that look alike come from different tables or passages of the source.

Assays:
[1] = system: acute rat hippocampal slices; experiment: [3H]GABA efflux from acute rat hippocampal slices (microvolume superfusion); format: cell-based; conditions: for effect on Glu-induced GABA release in hippocampal slices: DL-AP5 50 µM, CNQX 10 µM, (S)-MCPG 500 µM applied as Glu receptor antagonists
Procedure: Radiolabeling of 400 µm thick acute slices was conducted in 200 µl of ACSF in a glass tube. […] To preferentially label the cytosolic over the vesicular pools, incubation of slices at 30°C lasted for 10 min [54]. Slices were washed with fresh ACSF containing GABA-T inhibitors, thereafter placed in a custom-built closed micro-volume (50 µl) chamber secured in a water bath thermostated at 30°C [55]. […] The superfusate was collected in 0.5 ml fractions. After washing for 10 min, 10 fractions were collected to define the basal release of radioactivity (‘pre-stimulus’). At this point, the hippocampal slice was exposed to 100 µM Glu for a period of 10 min (‘drug application’), followed by further 10 min of washing with ACSF (‘washout’). Radioactivity of each 0.5 ml fraction counted in 3 ml HiSafe 3 scintillation mixture was expressed as the percentage of the actual radioactivity content of the slice (fractional release). Fractional release data from individual slices were normalized to a first order exponential curve (obtained by fitting the pre-stimulus and the last 3 washout values). Normalized percent efflux data from fractions of ‘pre-stimulus’ (1–10 min) versus ‘drug application’ (11–20 min) periods were averaged and compared by statistical analysis.

hippocampus = conditions: cited from earlier work
[2] = system: GABA transport in rat cerebrocortical NPMV (GAT-2/3); experiment: [3H]GABA uptake in rat cerebrocortical native plasma membrane vesicles (NPMV) in the presence of 100 µM NNC-711; format: biochemical; conditions: for modulation of the effect of Glu on GABA transport / cytosolic GABA level in rat cortical NPMV: 100 µM NNC-711 present; for effect on GABA transport in rat cortical NPMV: 10 min preincubation, 100 µM NNC-711 (Figure 1B)
Procedure: Cerebral cortices of 4–6 weeks old male Wistar rats (Toxicoop, Hungary) and frozen human brain tissue samples (Hungarian Brain Tissue Bank, Budapest) were used to prepare NPMV fractions, that contain numerous membrane vesicles of different sizes and shapes, a few intact synaptosomes and free mitochondria. […] Afterward, preincubated solution was incubated with [^3H]GABA (10 nM, Amersham) and GABA (90 nM, Sigma) for 1 min. In case of [^3H]β-alanine uptake, incubation solution contained 100 nM [^3H]β-alanine (Amersham) and 900 nM β-alanine (Sigma). After the incubation, samples were immediately filtered through glass fiber filters and washed twice with ice-cold HEPES buffer. The [^3H]GABA level inside the plasma membrane vesicles was determined by liquid scintillation method. Although this method is generally used to measure GABA uptake, we applied it to follow GABA release due to the simplicity and reliability of the assay. We also determined GABA release by preloading [^3H]GABA into NPMV vesicles and measuring the [^3H]GABA level in the intracellular and extracellular milieu. […] Non-specific uptake was determined in the presence of 1 mM guvacine. The radioactivity of samples was counted in HiSafe 3 (Perkin Elmer) scintillation mixture.

GAT-2 = system: GAT-2; design: method as in Borden,L.A. (1996) Neurochem Int. 4: 335–356; conditions: ref Borden,L.A. (1996) Neurochem Int. 4: 335–356; cited from earlier work
BGT = system: BGT; design: method as in Borden,L.A. (1996) Neurochem Int. 4: 335–356; conditions: ref Borden,L.A. (1996) Neurochem Int. 4: 335–356; cited from earlier work
GAT-3 = system: GAT-3; design: method as in Borden,L.A. (1996) Neurochem Int. 4: 335–356; conditions: ref Borden,L.A. (1996) Neurochem Int. 4: 335–356; cited from earlier work
GAT-1 = system: GAT-1; design: method as in Borden,L.A. (1996) Neurochem Int. 4: 335–356; conditions: ref Borden,L.A. (1996) Neurochem Int. 4: 335–356; cited from earlier work
rat hippocampus = experiment: In vivo microdialysis and HPLC amino acid detection in the hippocampus
Procedure: Male Wistar rats (300–400 g) were anaesthetized with halothane (1% in air) and microdialysis probes were implanted into the ventral hippocampus (A: −5.0, L: 5.0, V: −8.0) as described previously. To minimize tissue damage, the final position of the probes was reached slowly, in not less than 20 min. Perfusion of artificial cerebrospinal fluid, containing 144 mM NaCl, 3 mM KCl, 1 mM MgCl2, 2 mM CaCl2 (pH 7.4), was performed at a rate of 1 µl/min. The dialysate samples during 20 min were stored at −20°C. To establish the background amino acid concentration, each experiment started with the collection of three control samples with <10% variation. NNC-711 was applied bilaterally for 60 min followed by the simultaneous application of t-PDC and NNC-711 for 60 min. Concentration of amino acids was measured by pre-column derivatization of primary amino acids with orthophthalaldehyde (OPA, Sigma). Derivatization was performed at pH 10.4 in the presence of mercaptoethanol. OPA-derivatized amino acids were detected with fluorescence detector excitation wavelength 340 nm and emission wavelength 440 nm. Because of the instability of OPA derivatives, the HPLC technique was automated on an HP 1100 series system. Amino acids were separated on HP Hypersyl ODS reversed-phase columns (200×2.1 mm) filled with 5 µm C-18 spherical packing material. Eluent A was 0.1 M phosphate buffer containing 0.5% (vol/vol) tetrahydrofuran (Merck), pH 5.6, while eluent B contained 70% acetonitrile (Merck) in eluent A, pH 5.6. The gradient profile was: 12% B at 0 min, 23% B at 9 min, 36% B at 18 min, 100% B at 20 min, 100% B at 25 min and 12% B at 30 min. The column equilibration time was 8 min. External standards of 10 µM amino acids were injected after every 20 samples. Chromatograms were evaluated with HP Chem-Station software. Concentration of GABA measured in dialysate samples collected during drug applications were related to averaged GABA concentration of control samples collected for an hour prior to drug application and were given as percent changes.

[3] = system: acute rat hippocampal slices; experiment: [3H]GABA efflux from acute rat hippocampal slices (microvolume superfusion); format: cell-based; conditions: for alteration of [GABA]o during blockade of GAT-2/3: no exogenous Glu, n = 5
[4] = GABA transport in the presence of 100 µM NNC-711, present study, read-out: IC50 Rat cerebrocortical NPMV
[5] = rat cortical NPMV, in the presence of NNC-711, read-out: IC50, effect on GABA transport
[6] = 100 µM SNAP-5114, nominally Mg2+-free ACSF

## 6-cyano-7-nitroquinoxaline-2,3-dione [CNQX]
[1]
  effect on Glu-induced GABA release in hippocampal slices: partially inhibited

## NC(CCCP(=O)(O)O)C(=O)O (racemic) [DL-AP5, DL-2-amino-5-phosphonopentanoic acid]
[1]
  effect on Glu-induced GABA release in hippocampal slices: partially inhibited

## N[C@H](C(=O)O)[C@H](OCc1ccccc1)C(=O)O (racemic) [TBOA, DL-threo-β-benzyloxyaspartic acid]
hippocampus
  neuronal damage after in vivo administration in the hippocampus: induce neuronal damage in the CA1 and the dentate gyrus
[1]; Glu-induced release in the presence of 100 µM TBOA, n = 4
  elevation of [GABA]o ([3H]GABA efflux): 123±10 % of pre-stimulus control
[1]; Glu-induced release in the presence of 1000 µM TBOA, n = 4
  elevation of [GABA]o ([3H]GABA efflux): 109±1 % of pre-stimulus control
[2]
  modulation of the effect of Glu on GABA transport / cytosolic GABA level in rat cortical NPMV: further reduced

## C[N+]1(C)CCc2cc3c(cc2[C@H]1[C@@H]1OC(=O)c2c1ccc1c2OCO1)OCO3.[I-] [(1S,9R)-bicuculline methiodide]
[2]
  modulation of the effect of Glu on GABA transport / cytosolic GABA level in rat cortical NPMV: did not modulate the effect of Glu on the cytosolic GABA level

## NC[C@H](CC(=O)O)c1ccc(Cl)cc1 [(R)-baclofen]
[2]
  modulation of the effect of Glu on GABA transport / cytosolic GABA level in rat cortical NPMV: did not modulate the effect of Glu on the cytosolic GABA level

## C[C@@](N)(C(=O)O)c1ccc(C(=O)O)cc1 [(S)-MCPG, (S)-α-methyl-4-carboxyphenylglycine]
[1]
  effect on Glu-induced GABA release in hippocampal slices: partially inhibited

## C[N+](C)(C)CC(=O)O [Betaine]
GAT-2
  IC50: > 1000 µM
BGT
  IC50: 0.173 mM
GAT-3
  IC50: > 1 mM
GAT-1
  IC50: > 1 mM
[2]; [4]
  IC50: > 1000 µM

## [Cd+2] [Cd^2+]
[1]; Glu-induced release in the presence of 50 µM Cd2+ salt in the superfusion, n = 3
  elevation of [GABA]o ([3H]GABA efflux): 143±10 % of pre-stimulus control

## N[C@H](CC(=O)O)C(=O)O [D-Asp]
[2]
  effect on GABA transport in rat cortical NPMV: able to affect GABA transport

## N[C@H](CCC(=O)O)C(=O)O [D-Glu]
[2]
  effect on GABA transport in rat cortical NPMV: able to affect GABA transport

## CC(C)C[C@@H](N)C(=O)O [D-Leu]
[2]; [5]
  IC50: > 1000 µM

## N[C@H](CO)C(=O)O [D-Ser]
[2]; [5]
  IC50: > 1000 µM

## CC(C)[C@H]1CN[C@H](C(=O)O)[C@H]1CC(=O)O [DHK, dihydrokainic acid]
[2]
  modulation of the effect of Glu on GABA transport / cytosolic GABA level in rat cortical NPMV: significantly reduced

## NCCS(=O)O [Hypotaurine]
GAT-2
  IC50: 52 µM
BGT
  IC50: 0.536 mM
GAT-3
  IC50: 0.073 mM
GAT-1
  IC50: 1.01 mM
[2]; [4]
  IC50: 20 ± 0.4 µM

## N[C@@H](CC(=O)O)C(=O)O [L-Asp]
[2]
  effect on GABA transport in rat cortical NPMV: able to affect GABA transport

## CC(C)C[C@H](N)C(=O)O [L-Leu]
[2]; [5]
  IC50: > 1000 µM

## N[C@@H](CO)C(=O)O [L-Ser]
[2]; [5]
  IC50: > 1000 µM

## O=C(O)C1=CCCN(CCON=C(c2ccccc2)c2ccccc2)C1 [NNC-711, 1,2,5,6-tetrahydro-1-[2-[[(diphenylmethylene)amino]oxy]ethyl]-3-pyridinecarboxylic acid]
Rat hippocampus; control for non-specific release, n = 10
  [Arginine]o in the rat hippocampus in vivo: 100±25 % of control
Rat hippocampus; microdialysis application, t-PDC applied together with NNC-711, n = 10
  [GABA]o in the rat hippocampus in vivo: 160±18 % of control
[2]; 100 µM NNC-711, NPMV fractions, n = 51
  reduction of the [3H]GABA uptake: 86±3%

## O=C(O)C1CCCNC1 (centres unmarked) [Nipecotic acid]
[2]; [4]
  IC50: 28 ± 0.5 µM

## O=C(O)C1CCCN(CCC=C(c2ccccc2)c2ccccc2)C1 (centres unmarked) [SKF89976A]
GAT-2
  IC50: 550 µM
BGT
  IC50: 7.21 mM
GAT-3
  IC50: 4.39 mM
GAT-1
  IC50: 0.00064 mM
[2]; [4]
  IC50: 372 ± 9 µM

## COc1ccc(C(OCCN2CCC[C@H](C(=O)O)C2)(c2ccc(OC)cc2)c2ccc(OC)cc2)cc1 [SNAP-5114, 1-[2-[tris(4-methoxyphenyl)methoxy]ethyl]-(S)-3-piperidinecarboxylic acid]
[1]; Glu-induced release in the presence of SNAP-5114, n = 4
  elevation of [GABA]o ([3H]GABA efflux): 109±4 % of pre-stimulus control
[3]; [6]
  reduction of [3H]GABA release compared to the pre-application period: 10%
  alteration of [GABA]o during blockade of GAT-2/3: 90±4 % of pre-application control
[3]; 100 µM SNAP-5114, normal ACSF
  alteration of [GABA]o during blockade of GAT-2/3: 100±6 % of pre-application control

## NCCS(=O)(=O)O [Taurine]
GAT-2
  IC50: 1270 µM
BGT
  IC50: > 1 mM
GAT-3
  IC50: 2.86 mM
GAT-1
  IC50: > 1 mM
[2]; [4]
  IC50: 400 ± 7 µM

## N[C@@H](CS(=O)(=O)O)C(=O)O [cysteic acid]
[2]
  effect on GABA transport in rat cortical NPMV: able to affect GABA transport

## NCCc1ccc(O)c(O)c1 [dopamine]
[2]; [5]
  IC50: > 1000 µM

## NCCc1c[nH]c2ccc(O)cc12 [serotonin]
[2]; [5]
  IC50: > 1000 µM

## O=C(O)CCC(=O)O [succinate]
[2]; read-out: IC50, effect on GABA transport
  IC50: > 1000 µM

## NCCC(=O)O [β-alanine]
GAT-2
  IC50: 66 µM
BGT
  IC50: 1.1 mM
GAT-3
  IC50: 0.11 mM
GAT-1
  IC50: 2.92 mM
[2]; [4]
  IC50: 26 ± 4 µM

## penicillin
[2]; [5]
  IC50: > 1000 µM
